Source: patent publication US6391913B1 (priority 1998, dated 2002)
Where two headings read alike, the source gives them in different places.

Experiments:
[1] = test system: CCL6 cells; experiment: Cytotoxicity of derivatives on CCL6 cell line (Alamar Blue assay, ID50); type: cell-based
Description: The cytotoxicity activity of the derivatives was evaluated on CCL6 cell line. The cells were maintained in RPMI 1640 supplemented with fetal calf serum 10% at 37° C., under a 5% CO2 atmosphere. Cells were plated at 2500 cells per well in 96 well plates. Drugs or derivatives were added 24 hours later. After three days of incubation with drugs or derivatives, 10 μl of Alamar Blue were added to the medium. The Alamar assay was performed as described by Pagé et al. (Pagé, B., et al., Int. J. Oncol., 3, 473-476, 1993), and the ID50 was calculated.

[2] = Chloroform extraction (chloroform-water), mixed one hour, HPLC
[3] = Ratio ID50 of derivative/ID50 of paclitaxel, CCL6 cells, three days of incubation, Alamar Blue

Molecule	relative ID* CCL6 [1, 3]	relative ID* CCL6 [1]	Organic phase/aqueous phase [2]
2′-[N-(aminohexyl)-amidohexanoic acid]paclitaxel ester [Taxamine 5]	13	–	–
CC(=O)OC1C(=O)C2(C)C(O)CC3OCC3(OC(C)=O)C2C(OC(=O)c2ccccc2)C2(O)CC(OC(=O)C(OC(=O)CCCCCCCCC(=O)O)C(NC(=O)c3ccccc3)c3ccccc3)C(C)=C1C2(C)C (centres unmarked) [Product 5, 2′-(decanedioic acid)-paclitaxel monoester]	–	20	–
CC(=O)OC1C(=O)C2(C)C(O)CC3OCC3(OC(C)=O)C2C(OC(=O)c2ccccc2)C2(O)CC(OC(=O)C(OC(=O)CCCCC(=O)NCCN)C(NC(=O)c3ccccc3)c3ccccc3)C(C)=C1C2(C)C (centres unmarked) [Taxamine 1, 2′-[N-(aminoethyl)-amidohexanoic acid]-paclitaxel ester]	24	–	151
CC(=O)O[C@H]1C(=O)[C@@]2(C)[C@H]([C@H](OC(=O)c3ccccc3)[C@]3(O)C[C@H](OC(=O)[C@H](O)[C@@H](NC(=O)c4ccccc4)c4ccccc4)C(C)=C1C3(C)C)[C@]1(OC(C)=O)CO[C@@H]1C[C@@H]2O [paclitaxel, reference compound]	1	–	–
